Values after ≈ are worked out from the molar mass of the structure shown.
Experiment: physchem
Settings: water

solubility: 166 µg/mL (≈ 324 µM)
SMILES: C=CC(=O)NCc1cc(C(=O)NCc2c(SC)cc(C)[nH]c2=O)c(C)c(N(CC)C2CCOCC2)c1

— ChEMBL document CHEMBL6177996 (J Med Chem, 2025)
